For two molecules, IC50 results are on record in paper PMC3644221 (Toxicology letters, 2013).

Usually IC50 stands for the concentration at which inhibition is half-maximal. Lower therefore signals greater potency in that assay.

The experiment concerns the target CYP1A1 (Homo sapiens, UniProt P04798). Nature of the experiment: inhibition of CYP1A1-specific Luciferin-CEE activity. Type of experiment: biochemical.

CYP1A1, sequence (P04798 whole entry): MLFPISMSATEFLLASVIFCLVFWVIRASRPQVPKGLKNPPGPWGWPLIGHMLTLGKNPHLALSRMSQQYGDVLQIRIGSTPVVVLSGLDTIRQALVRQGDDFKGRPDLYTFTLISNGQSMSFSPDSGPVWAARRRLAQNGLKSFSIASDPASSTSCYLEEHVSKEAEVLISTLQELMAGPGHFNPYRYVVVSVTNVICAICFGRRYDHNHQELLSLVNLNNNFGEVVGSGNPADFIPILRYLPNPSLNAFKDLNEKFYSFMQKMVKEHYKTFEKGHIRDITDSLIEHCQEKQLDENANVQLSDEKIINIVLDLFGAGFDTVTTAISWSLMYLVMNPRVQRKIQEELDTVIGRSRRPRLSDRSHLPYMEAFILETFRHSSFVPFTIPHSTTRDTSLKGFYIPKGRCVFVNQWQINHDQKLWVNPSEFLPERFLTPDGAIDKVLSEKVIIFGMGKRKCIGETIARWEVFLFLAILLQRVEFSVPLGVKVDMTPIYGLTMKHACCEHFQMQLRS

As for `Oc1cc(O)c2cc(O)c(-c3cc(O)c(O)c(O)c3)[o+]c2c1` [delphinidin], half-maximal inhibition (IC50) was put at 77 µM.

With `Oc1ccc(-c2[o+]c3cc(O)cc(O)c3cc2O)cc1` [pelargonidin], inhibition was half-maximal at 33 µM (IC50).
